This is an account of results in PubChem BioAssay (NCI).

Among the test systems are NCI-H226 lung; UO-31 renal; SN12C renal; DU-145 prostate; SF-268 CNS; RPMI-8226 leukemia; UACC-62 melanoma; SW-620 colon; SK-MEL-2 melanoma; HL-60(TB) leukemia.
Holding throughout (assay): NCI tumour cell line growth inhibition, 48 h

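All cell lines were grown in 96-well plates and treated with compound for 48 hours. Definition used: TGI = concentration required for complete inhibition of growth.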

For `O=C1/C(=C\c2cccc(Oc3ccccc3)c2)SC(c2ccccc2)N1c1cccc([N+](=O)[O-])c1` (stereo unspecified), the TGI in the assay on NCI-H226 lung, with UO-31 renal, with SN12C renal, with DU-145 prostate, with SF-268 CNS and in the assay with RPMI-8226 leukemia was greater than 100 µM in each case. Moreover, the TGI with UACC-62 melanoma, in the assay with SW-620 colon and in the assay with SK-MEL-2 melanoma was greater than 100 µM in each case.

As to `O=S1(=O)OCCOS(=O)(=O)C1Cc1nc2ccccc2[nH]1`, the TGI is greater than 100 µM in the assay with UO-31 renal; greater than 100 µM in the assay with SN12C renal; greater than 100 µM with DU-145 prostate; greater than 100 µM with RPMI-8226 leukemia; 88.4 µM in the assay with HL-60(TB) leukemia; greater than 100 µM in the assay with SK-MEL-2 melanoma.

For the compound `N#CCCC1(CCC#N)CCCCCCC(CCC#N)(CCC#N)C(O)C1O` (stereo unspecified), the TGI in the assay on NCI-H226 lung, in the assay on UO-31 renal, in the assay with SN12C renal, in the assay with DU-145 prostate, in the assay on SF-268 CNS and in the assay with SW-620 colon was greater than 100 µM each time. The TGI in the assay on SK-MEL-2 melanoma was greater than 100 µM.

With `OC12CCCCCC1(N1CCOCC1)c1ccccc12` (stereo unspecified), the TGI in the assay with NCI-H226 lung, with UO-31 renal, in the assay with SN12C renal, in the assay with SF-268 CNS, with RPMI-8226 leukemia and in the assay with HL-60(TB) leukemia was greater than 100 µM each time. In addition, the TGI with UACC-62 melanoma, with SW-620 colon and with SK-MEL-2 melanoma was greater than 100 µM throughout.

Consider `CCN(CC)CCCCC1CCN(CC(=O)N2c3ccccc3NC(=O)CC2C)CC1` (stereo unspecified), for which the TGI in the assay with NCI-H226 lung, in the assay with UO-31 renal, in the assay on SN12C renal, in the assay with SF-268 CNS, with RPMI-8226 leukemia and in the assay with HL-60(TB) leukemia was greater than 100 µM throughout. Also, the TGI in the assay with UACC-62 melanoma, with SW-620 colon and in the assay with SK-MEL-2 melanoma was greater than 100 µM in each case.

Turning to `COC(=O)CC(NC(=O)OCc1ccccc1)C(C(=O)OCc1ccccc1)C1(C)OCCO1` (stereo unspecified), the TGI in the assay on NCI-H226 lung was 94.1 µM; in the assay on UO-31 renal, 61.1 µM; with SN12C renal it was greater than 100 µM; in the assay on SF-268 CNS it was greater than 100 µM; in the assay with RPMI-8226 leukemia, 73.7 µM; with HL-60(TB) leukemia, 62.6 µM. For the same compound, the TGI in the assay on UACC-62 melanoma is 59.7 µM; with SW-620 colon, greater than 100 µM; in the assay on SK-MEL-2 melanoma, 43.8 µM.

Consider `C=C1CC(Cn2cc(Br)c(=O)[nH]c2=O)(c2ccc(-c3ccccc3)cc2)OC1=O` (stereo unspecified), for which the TGI with NCI-H226 lung is 4.31 µM; in the assay on UO-31 renal it was 3.93 µM; in the assay on SN12C renal it was 4.67 µM; in the assay with DU-145 prostate, 4.59 µM; with SF-268 CNS it was 4.64 µM; in the assay with RPMI-8226 leukemia, 0.574 µM. Besides, the TGI in the assay with UACC-62 melanoma worked out at 2.45 µM; in the assay with SW-620 colon, 1.58 µM; in the assay on SK-MEL-2 melanoma it was 3.26 µM.

With `CC12CC(c3ccccc3O1)C(C(=O)Nc1cccc(F)c1)C(=O)N2` (stereo unspecified), the TGI is 24.9 µM with UO-31 renal; greater than 100 µM with DU-145 prostate; greater than 100 µM in the assay with SF-268 CNS; greater than 100 µM in the assay with RPMI-8226 leukemia; greater than 100 µM with HL-60(TB) leukemia; greater than 100 µM in the assay with UACC-62 melanoma. Moreover, the TGI in the assay on SW-620 colon and in the assay with SK-MEL-2 melanoma was greater than 100 µM throughout.

Regarding `CC(=O)CC1(C)OC(N)=C(C#N)C1(C#N)C#N` (stereo unspecified), the TGI in the assay with NCI-H226 lung, in the assay with UO-31 renal, in the assay on SN12C renal, in the assay on DU-145 prostate, in the assay with SF-268 CNS and in the assay on RPMI-8226 leukemia was greater than 100 µM in each case. The TGI in the assay on UACC-62 melanoma, with SW-620 colon and in the assay on SK-MEL-2 melanoma was greater than 100 µM each time.

On to `Cc1cc2occ(-c3ccc(Cl)cc3)c2c(=O)o1`, for which the TGI with NCI-H226 lung, in the assay with UO-31 renal, in the assay with SN12C renal, with SF-268 CNS, in the assay with RPMI-8226 leukemia and in the assay on HL-60(TB) leukemia was greater than 100 µM in each case. Further, the TGI with UACC-62 melanoma, in the assay on SW-620 colon and in the assay on SK-MEL-2 melanoma was greater than 100 µM in each case.

For `O=c1oc2ccc(Cl)cc2cc1-c1cn2ccsc2n1`, the TGI in the assay on UO-31 renal was greater than 100 µM; with SN12C renal, greater than 100 µM; with DU-145 prostate it was greater than 100 µM; with SF-268 CNS, greater than 100 µM; in the assay with RPMI-8226 leukemia it was greater than 100 µM; in the assay on HL-60(TB) leukemia, 85.1 µM. In addition, the TGI in the assay with UACC-62 melanoma, with SW-620 colon and with SK-MEL-2 melanoma was greater than 100 µM throughout.

On to `O=C(OCc1ccccc1C1CSCSC1)c1cc(C(=O)OCc2ccccc2C2CSCSC2)c(C(=O)OCc2ccccc2C2CSCSC2)cc1C(=O)OCc1ccccc1C1CSCSC1`, for which the TGI in the assay on NCI-H226 lung, in the assay with UO-31 renal, in the assay on SN12C renal, with SF-268 CNS, in the assay on RPMI-8226 leukemia and with HL-60(TB) leukemia was greater than 100 µM throughout. Also, the TGI with UACC-62 melanoma, with SW-620 colon and with SK-MEL-2 melanoma was greater than 100 µM in each case.

For `O=c1c2c(nc3n1CCC3)sc1c(O)c(Br)ccc12`, the TGI in the assay with NCI-H226 lung was 73.2 µM; in the assay on UO-31 renal it was 45.8 µM; with SN12C renal it was 43.1 µM; with SF-268 CNS, greater than 100 µM; with RPMI-8226 leukemia it was 53.6 µM; with HL-60(TB) leukemia, 33.8 µM. The TGI in the assay with UACC-62 melanoma worked out at 35.8 µM; in the assay with SW-620 colon, 29.9 µM; in the assay on SK-MEL-2 melanoma it was 39.3 µM.

Consider `COc1ccc(C2=C(OC(=O)N(C)C)c3cccn3-c3cc(Cl)ccc3S2)cc1`, for which the TGI with SN12C renal, in the assay on DU-145 prostate, in the assay on SF-268 CNS, with RPMI-8226 leukemia, with HL-60(TB) leukemia and with UACC-62 melanoma was greater than 10 µM in each case. Besides, the TGI in the assay on SW-620 colon is greater than 10 µM.

Regarding `COc1cccc(CN(C(=O)/C=C\Sc2ccccc2)C(C)(C)C)c1`, the TGI in the assay on NCI-H226 lung, in the assay on UO-31 renal, with SN12C renal, in the assay on DU-145 prostate, in the assay on HL-60(TB) leukemia and in the assay with UACC-62 melanoma was greater than 100 µM each time. The TGI in the assay with SW-620 colon and in the assay on SK-MEL-2 melanoma was greater than 100 µM in each case.
